Series [1] deals with male Sprague-Dawley rats. As to the kind of experiment: Hemodynamic measurement (RVSP by right cardiac catheterization) in MCT-modelled PAH rats. In kind it is in vivo. How it is done: (§1) Twenty-eight 7-week-old male Sprague-Dawley rats (average weight of 200-250 g) were purchased from Vital River and were raised at the experimental site for 1 week of acclimatization (temperature 20°C-26°C, humidity 30%-70%, light-dark cycle ratio 1:1) until they were 8 weeks old.
(§2) Twenty-eight rats were randomized into the following 6 groups, including dosing groups, positive control groups, a negative control group and a healthy control group, and each was marked with ear tags.
(§3) • (1) Preparation of monocrotaline (MCT) solution: An adequate amount of MCT was weighed into a 50 mL solution of 20% ethanol-normal saline. After gentle shaking, the solution was transferred to a 50-mL centrifuge tube, and placed tilted in a thermostatic shaker at 37°C, 220 rpm for 12-14 hours to fully dissolve until no visible crystalline particles observed. • (2) Injection of MCT solution: The skin on the dorsal cervical region of the rats was gently lifted, MCT solution was subcutaneously injected at a dose of 60 mg/kg using a 1-mL syringe and the day was recorded as Day 0. • (3) Healthy control: The same volume of normal saline was injected in the same manner.
(§4) According to the concentration of 0.6 mg/mL and 1.2 mg/mL (3-mg/kg/day and 6-mg/kg/day dose groups), appropriate amounts of the test compound were weighed and dissolved in corresponding volume of pure water by shaking to obtain transparent solution, respectively; • (2) The resulting solutions were stored in a 4°C refrigerator. Remove and equilibrate to room temperature before use;
(§5) Starting from Day 14, the rats were weighed daily, and the corresponding solutions (test compound or normal saline) were administered intragastrically according to the grouping protocol until Day 27, for a total of 14 days; the intragastric dose was 0.5 mL/100 g, and the body weight and survival data of the rats were recorded.
On Day 28, the hemodynamic status of the rats was assessed using right cardiac catheterization: • (1) The PE-50 catheter, pressure transducer and pressure measuring workstation were prepared; the tubing was rinsed with heparinized saline to ensure that no bubbles remained in the tubing; the catheter was corrected to zero; • (2) The rats were anesthetized with 2% isoflurane at a flow rate of 2 L/min, and their limbs and incisors were fixed on the operating table with the cranial end to the operator; • (3) The fur on the surgical area of cervical region was shaved; • (4) The cervical skin was cut along the midline, pulled and fixed using hemostats, and the tissue was separated layer by layer using scissors to expose the right internal jugular vein; • (5) The internal jugular vein was bluntly dissected and isolated using hemostats; • (6) The distal end of the internal jugular vein was ligated using 4-0 sutures, and a suture was passed through the proximal end for later use; • (7) A V-shaped incision was made in the internal jugular vein using ophthalmic scissors, and a PE-50 catheter was inserted through the incision. After the catheter was placed, the pre-placed suture at the proximal end of the internal jugular vein was ligated to secure the catheter; • (8) The catheter reached the right atrium and right ventricle in turn; the right atrial pressure and right ventricular pressure were recorded; at least 5 stable waveforms were recorded at each site; 5 continuous waveforms were taken as segments, and more than 2 segments were intercepted to calculate the right ventricular systolic pressure (RVSP); • (9) The PE-50 catheter was removed and the examination was completed.

Series [2] concerns male Sprague-Dawley rats. The series can be described thus: Fulton index measurement RV/(LV+S) in MCT-modelled PAH rats. In kind it is in vivo. How it is done:
as §1, §2, §3, §4, §5
The tube was shaken upside down 6-8 times to mix; • (3) The lungs and heart were exposed by further opening the chest cavity; • (4) The left atrial appendage was cut open, a tube of heparinized saline was slowly injected using a 5-mL syringe into the right atrial appendage to flush the pulmonary vessels; • (5) The rat heart, lung, liver, spleen and kidney tissues were kept and frozen, and fixed with formaldehyde solution.
After separating the heart, the non-ventricular parts (such as the atria, blood vessels, and valve rings) were cut off. The intraventricular thrombus was removed as much as possible using forceps. The right ventricle (RV) and left ventricle (LV) + ventricular septum (LV+S) were separated by cutting along tense junction between the RV and interventricular septum (S) using straight scissors. The tissues were dried with gauze and weighed separately. RV/(LV+S) was calculated as the Fulton index. [drawing 107]

Series [3] is described as follows: Dissolution in water when preparing the test compound solutions. Type of series: physicochemical. The settings on record: pure water; 0.6 mg/mL and 1.2 mg/mL gave transparent solution. How it is done:
as §4

Where [4] appears, read: 3 mg/kg/day intragastric from Day 14, MCT 60 mg/kg rats, negative control 63±7.34, healthy control 22±2.41.
The mark [5] stands for this setting: 6 mg/kg/day intragastric from Day 14, MCT 60 mg/kg rats, negative control 63±7.34, healthy control 22±2.41.
Setting [6] is: 3 mg/kg/day intragastric from Day 14, MCT 60 mg/kg rats, RV/(LV+S), negative control 0.61, healthy control 0.29.
Where [7] appears, read: 6 mg/kg/day intragastric from Day 14, MCT 60 mg/kg rats, RV/(LV+S), negative control 0.61, healthy control 0.29.
[8] abbreviates: 60(30mpk bid) mg/kg/day, Group 7, same experimental method.

Structures are written as SMILES.

In the case of `CCCCC[C@H](O)CC[C@H]1[C@H](O)[C@@H](CC)[C@@H]2Cc3c(cccc3OCC(=O)O)C[C@@H]21` [Compound 1], the “RVSP mmHg” value is recorded as 41 ± 16.27 mmHg in series [1] (setting [4]); 41±16.27 mmHg in series [1] (3 mg/kg/day intragastric from Day 14, MCT 60 mg/kg rats, negative control 63±7.34, healthy control 22±2.41, listed as Compound 1M); 22 ± 4.36 mmHg in series [1] (setting [5]); 22+4.36 mmHg in series [1] (6 mg/kg/day intragastric from Day 14, MCT 60 mg/kg rats, negative control 63±7.34, healthy control 22±2.41, listed as Compound 1H). The Fulton index in series [2] (setting [6]) was 0.37 ± 0.12; in series [2] (3 mg/kg/day intragastric from Day 14, MCT 60 mg/kg rats, RV/(LV+S), negative control 0.61, healthy control 0.29, listed as Compound 1M), 0.37+0.12; in series [2] (setting [7]), 0.25 ± 0.27; in series [2] (6 mg/kg/day intragastric from Day 14, MCT 60 mg/kg rats, RV/(LV+S), negative control 0.61, healthy control 0.29, listed as Compound 1H) it was 0.25±0.27. Further, the Solubility in water result in series [3] is “can be directly dissolved in water”.
As to `CCCCC[C@H](O)CC[C@@H]1[C@H]2Cc3cccc(OCC(=O)O)c3C[C@H]2C[C@H]1O` [Compound C1, Treprostinil sodium 5.5-hydrate], the “RVSP mmHg” value is on record as 46 ± 13.45 mmHg in series [1] (setting [4]); 46+13.45 mmHg in series [1] (3 mg/kg/day intragastric from Day 14, MCT 60 mg/kg rats, negative control 63±7.34, healthy control 22±2.41, listed as Compound C1M); 38 ± 8.86 mmHg in series [1] (setting [5]); 38+8.86 mmHg in series [1] (6 mg/kg/day intragastric from Day 14, MCT 60 mg/kg rats, negative control 63±7.34, healthy control 22±2.41, listed as Compound C1H). Moreover, the Fulton index in series [2] (setting [6]) is 0.38 ± 0.10; in series [2] (3 mg/kg/day intragastric from Day 14, MCT 60 mg/kg rats, RV/(LV+S), negative control 0.61, healthy control 0.29, listed as Compound C1M), 0.38+0.10; in series [2] (setting [7]), 0.37 ± 0.07; in series [2] (6 mg/kg/day intragastric from Day 14, MCT 60 mg/kg rats, RV/(LV+S), negative control 0.61, healthy control 0.29, listed as Compound C1H) it was 0.37+0.07. The Solubility in water result in series [3] was “can be directly dissolved in water”.
In the case of `O=C(O)COC[C@H]1CC[C@H](COC(=O)N(c2ccccc2)c2ccc(Cl)cc2)CC1` [Ralinepag], in series [1] (setting [8]), the “RVSP mmHg” value stood at 22 mmHg. For the same compound, in series [2] (setting [8]), the Fulton index was found to be 0.35.

The values above are taken from patent EP4588908A1, “NEW PROSTACYCLIN FOR TREATING PULMONARY HYPERTENSION” (Shanghai Forefront Pharma Co., Ltd., priority 2023, dated 2025).
